The target in experiment [1] is T1, human glucagon receptor (Homo sapiens, UniProt P47871).
T1 construct: host or cells: human liver samples or a recombinant cell line (alternatives)
The experiment is described as follows: Human glucagon receptor affinity ([125I]glucagon displacement, membrane preparation). The format is binding. Here is the method:
Compounds provided herein are dissolved in a suitable solvent (e.g., dimethlysulfoxide) at a concentration of 10 mM and then diluted in buffer (e.g., 50 mM Hepes, pH 7.4, 5 mM MgCl2, 1 mM CaCl2, and 0.2% BSA) to concentrations ranging from 1 nM to 100 μM. Compounds (20 μL/well) and [^125I]glucagon at the final concentration of 0.125 nM (20 μl/well) (Perkin Elmer) are added to and mixed in wells of a 96-well plate (Costar, Corning) containing 120 μL of buffer. Next, an appropriate aliquot of a membrane preparation containing the human glucagon receptor (isolated from human liver samples or obtained from a recombinant cell line) is added to the wells. The binding mixtures are incubated for 2 hrs at room temperature. In the meantime, a MultiScreen 96-well filter plate (Millipore) is treated with 200 μL of the buffer, which is vacuumed through the filter just before the binding mixtures are transferred to the plate. At the end of incubation, binding mixtures are transferred to the wells of the MultiScreen 96-well filter plate and filtered through by applying vacuum. The plate is washed once with 200 μL per well of the buffer, and the filters are dried and counted using a gamma counter.

In experiment [2] the test system is human hepatocytes. The experiment is described as follows: Functional antagonism of glucagon-stimulated glucose production in hepatocytes. The class given is cell-based. The conditions noted are these: human hepatocyte assay, 1 nM glucagon; read-out: Hu Hepatocyte EC50. On the procedure:
Primary human, monkey, dog, rat, or mouse hepatocytes are seeded onto collagen-coated 24-well plates in Williams E medium (supplemented with 10% fetal bovine serum) and incubated at 37° C. overnight in M199 medium (supplemented with 15 mM glucose and 10 nM human insulin). The following day cells are washed twice with a glucose-free Kreb-bicarbonate buffer, pH 7.4, containing 0.1% BSA. Cells are then incubated at 37° C. with the aforementioned buffer containing 1 nM glucagon and varying concentrations of a glucagon antagonist (0-100 microM). Control wells without glucagon or antagonist are also included. After 1 hour, an aliquot of the medium is removed and analyzed for glucose content by means of the glucose oxidase method. The background glucose levels observed in the control wells are subtracted from the glucagon and antagonist containing wells. A graph of % glucose concentration vs drug concentration is plotted and an EC50 value for inhibition of glucose production generated using Sigmaplot software (SAS, Cary, N.C.). Alternatively, intracellular cAMP levels are measured using standard kits and EC50 values determined by plotting these levels against drug concentration. Antagonists of the glucagon receptor inhibit glucagon-induced cAMP production.

Where [3] appears, read: human glucagon receptor binding assay, stereo column says racemic or R-isomer, read-out: Hu IC50.
[4] abbreviates: R-isomer, read-out: Hu 1050 (nM) R.
Where [5] appears, read: S-isomer, read-out: Hu 1050 (nM) S.

For 39 molecules, IC50 and EC50 results are on record in US8907103B2, “Glucagon antagonists” (Metabasis Therapeutics, Inc., priority 2008, dated 2014).

Molecules are shown by their SMILES. Like-named read-outs stand apart in the source and are kept apart here.

T1 sequence (P47871 26-477): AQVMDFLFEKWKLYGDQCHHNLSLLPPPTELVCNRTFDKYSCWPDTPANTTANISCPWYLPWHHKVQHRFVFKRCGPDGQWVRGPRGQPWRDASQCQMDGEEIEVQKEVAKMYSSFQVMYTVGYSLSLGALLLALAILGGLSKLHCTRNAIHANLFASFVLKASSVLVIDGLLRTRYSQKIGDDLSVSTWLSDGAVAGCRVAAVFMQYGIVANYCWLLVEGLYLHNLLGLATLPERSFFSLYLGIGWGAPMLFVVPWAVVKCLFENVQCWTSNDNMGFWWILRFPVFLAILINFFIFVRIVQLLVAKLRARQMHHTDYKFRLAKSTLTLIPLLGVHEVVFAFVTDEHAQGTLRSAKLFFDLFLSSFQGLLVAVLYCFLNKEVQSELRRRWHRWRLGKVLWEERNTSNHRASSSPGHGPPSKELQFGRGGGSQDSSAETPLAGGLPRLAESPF

As to `CC12CCC(C=C1c1ccc(C(Cc3ccc(C(=O)NCCS(=O)(=O)O)cc3)C(=O)Nc3ccc(-c4nc5ccccc5o4)cc3)cc1)C2(C)C` (racemic), in experiment [1] (setting [3]), the IC50 came to 18 nM. Also, the EC50 in experiment [2] is 27 nM. On to `CC(C)(C)c1ccc(-c2ccc(C(Cc3ccc(C(=O)NCCS(=O)(=O)O)cc3)C(=O)Nc3ccc(-c4ccccc4Cl)cc3)cc2)cc1` (racemic), for which the IC50 in experiment [1] (setting [3]) was determined as 18 nM. Besides, the concentration for a half-maximal effect (EC50) in experiment [2] is 412 nM. Taken in the same sequence, the figures for `CC(C)(C)c1ccc(-c2ccc(C(Cc3ccc(C(=O)NCCS(=O)(=O)O)cc3)C(=O)Nc3ccc(-c4cc(Cl)cc(Cl)c4)cc3)cc2)cc1` (racemic) were 15 nM and 132 nM. The like results for `Cc1cc(Cl)ccc1-c1ccc(NC(=O)C(Cc2ccc(C(=O)NCCS(=O)(=O)O)cc2)c2cccc(-c3ccc(C(C)(C)C)cc3)c2)cc1` (racemic) were, in that order, 15 nM and 329 nM.

In the case of `Cc1cc(C)c2oc(-c3ccc(NC(=O)C(Cc4ccc(C(=O)NCCS(=O)(=O)O)cc4)c4ccc(-c5ccc(C(C)(C)C)cc5)cc4)cc3)nc2c1` (racemic), the IC50 in experiment [1] (setting [3]) was determined as 11 nM. Further, the EC50 in experiment [2] came to 560 nM.

For the molecule `CC(C)(C)c1ccc(-c2cccc(C(Cc3ccc(C(=O)NCCS(=O)(=O)O)cc3)C(=O)Nc3ccc(-c4ccc(Cl)cc4Cl)cc3)c2)cc1` (racemic), the IC50 in experiment [1] (setting [3]) was 15 nM. Also, the EC50 in experiment [2] came out at 215 nM. With `Cc1cc(Cl)ccc1-c1ccc(NC(=O)C(Cc2ccc(C(=O)NCCS(=O)(=O)O)cc2)c2ccc(-c3ccc(C(C)(C)C)cc3)cc2)c(Cl)c1` (racemic), the IC50 in experiment [1] (setting [3]) was 19 nM. As to `CC1(C)CC=C(c2ccc(NC(=O)C(Cc3ccc(C(=O)NCCS(=O)(=O)O)cc3)c3ccc(-c4ccc(C(C)(C)C)cc4)cc3)cc2)CC1` (racemic), the IC50 in experiment [1] (setting [3]) stood at 18 nM. Further, the EC50 in experiment [2] was found to be 60 nM. Take `CC(C)(C)c1ccc(-c2ccc(C(Cc3ccc(C(=O)NCCS(=O)(=O)O)cc3)C(=O)Nc3ccc(-c4cccc(Cl)c4)cc3)cc2)cc1` (racemic): in experiment [1] (setting [3]), the IC50 is 12 nM. For the same molecule, the EC50 in experiment [2] was determined as 661 nM. As to `Cc1ccc(-c2ccc(NC(=O)C(Cc3ccc(C(=O)NCCS(=O)(=O)O)cc3)c3ccc(-c4ccc(C(C)(C)C)cc4)cc3)cc2)cc1Cl` (racemic), the IC50 in experiment [1] (setting [3]) was 10 nM. On to `Cc1ccc(-c2ccc(NC(=O)C(Cc3ccc(C(=O)NCCS(=O)(=O)O)cc3)c3ccc(C4=CCC(C)(C)CC4)cc3)c(Cl)c2)cc1Cl` (racemic), for which, in experiment [1] (setting [3]), the IC50 is 16 nM. Consider `CC(C)(C)C1CC=C(c2ccc(C(Cc3ccc(C(=O)NCCS(=O)(=O)O)cc3)C(=O)Nc3ccc(-c4nc5ccccc5o4)cc3)cc2)CC1` (racemic), for which the IC50 in experiment [1] (setting [3]) was 8 nM. In experiment [2], the EC50 was 116 nM. As for `CC(C)(C)C1CCC(c2ccc(C(Cc3ccc(C(=O)NCCS(=O)(=O)O)cc3)C(=O)Nc3ccc(-c4nc5ccccc5o4)cc3)cc2)CC1` (racemic), the IC50 in experiment [1] (setting [3]) is 18 nM. Also, the EC50 in experiment [2] was found to be 161 nM. The like results for `CC(C)(C)C1CCC(c2ccc(C(Cc3ccc(C(=O)NCCS(=O)(=O)O)cc3)C(=O)Nc3ccc(-c4ccc(C(F)(F)F)cc4Cl)cc3)cc2)CC1` (racemic) were, in that order, 12 nM and 30 nM. As to `O=C(NCCS(=O)(=O)O)c1ccc(CC(C(=O)Nc2ccc(-c3ccc(C(F)(F)F)cc3Cl)cc2)c2ccc(C3=CCCCC3)cc2)cc1` (racemic), in experiment [1] (setting [3]), the IC50 came out at 16 nM. Regarding `Cc1cc(C(F)(F)F)ccc1-c1ccc(NC(=O)C(Cc2ccc(C(=O)NCCS(=O)(=O)O)cc2)c2ccc(C3=CCCCC3)cc2)cc1` (racemic), in experiment [1] (setting [3]), the IC50 was 16 nM. For the same molecule, in experiment [2], the EC50 came out at 78 nM.

Consider `CC1(C)CC=C(c2ccc(C(Cc3ccc(C(=O)NCCS(=O)(=O)O)cc3)C(=O)Nc3ccc(-c4ccc(C(F)(F)F)cc4Cl)cc3)cc2)CC1` (racemic), for which the IC50 in experiment [1] (setting [3]) is 15 nM. Besides, in experiment [2], the EC50 stood at 137 nM.

Consider `Cc1ccc(-c2cc(Cl)c(NC(=O)C(Cc3ccc(C(=O)NCCS(=O)(=O)O)cc3)c3ccc(C=CC(C)(C)C)cc3)cc2C)cc1F` (racemic), for which the IC50 in experiment [1] (setting [3]) turned out to be 20 nM. In addition, the EC50 in experiment [2] was 143 nM. Take `Cc1cc(Cl)ccc1-c1ccc(NC(=O)C(Cc2ccc(C(=O)NCCS(=O)(=O)O)cc2)c2cccc(C3=CCCCC3)c2)cc1` (racemic): the IC50 in experiment [1] (setting [3]) was 14 nM. For the same molecule, the EC50 in experiment [2] came to 32 nM. The like results for `Cc1cc(Cl)ccc1-c1ccc(NC(=O)C(Cc2ccc(C(=O)NCCS(=O)(=O)O)cc2)c2cccc(C3=CCC(C)(C)C=C3)c2)cc1` (racemic) were, in that order, 19 nM and 108 nM. With `CC1(C)C=CC(c2cccc(C(Cc3ccc(C(=O)NCCS(=O)(=O)O)cc3)C(=O)Nc3ccc(-c4ccc(Cl)cc4Cl)cc3)c2)=CC1` (racemic), the IC50 in experiment [1] (setting [3]) worked out at 18 nM. For the same molecule, the EC50 in experiment [2] was found to be 61 nM.

Take `CC(C)(C)c1ccc(-c2ccc(C(Cc3ccc(C(=O)NCCS(=O)(=O)O)cc3)C(=O)Nc3ccc(-c4nc5ccccc5o4)cc3)cc2)cc1` (racemic): in experiment [1] (setting [3]), the IC50 is 12 nM. In addition, the EC50 in experiment [2] is 241 nM. As for `CC(C)(C)c1ccc(-c2ccc(C(Cc3ccc(C(=O)NCCS(=O)(=O)O)cc3)C(=O)Nc3ccc(C4=CCC(C(C)(C)C)CC4)cc3)cc2)cc1` (racemic), the IC50 in experiment [1] (setting [3]) was found to be 12 nM. Regarding `CC(C)(C)c1ccc(-c2ccc(C(Cc3ccc(C(=O)NCCS(=O)(=O)O)cc3)C(=O)Nc3ccc(-c4c(Cl)cccc4Cl)cc3)cc2)cc1` (racemic), the IC50 in experiment [1] (setting [3]) stood at 18 nM. Same read-out and setting: under `Cc1cc(C)c(-c2ccc(NC(=O)C(Cc3ccc(C(=O)NCCS(=O)(=O)O)cc3)c3ccc(C4=CCC(C)(C)CC4)cc3)cc2)c(C)c1` (racemic) stands 12 nM.

As for `CC(C)(C)c1ccc(-c2ccc(C(Cc3ccc(C(=O)NCCS(=O)(=O)O)cc3)C(=O)Nc3ccc(-c4ccc(Cl)c(Cl)c4)cc3)cc2)cc1` (racemic), the IC50 in experiment [1] (setting [3]) is 10 nM. With `Cc1ccc(-c2ccc(NC(=O)C(Cc3ccc(C(=O)NCCS(=O)(=O)O)cc3)c3ccc(C4=CCC(C)(C)CC4)cc3)c(Cl)c2)c(C)c1` (racemic), in experiment [1] (setting [3]), the IC50 is 14 nM. On the same count and under the same terms, under `CC1(C)CC=C(c2ccc(C(Cc3ccc(C(=O)NCCS(=O)(=O)O)cc3)C(=O)Nc3ccc(-c4ccc(C(C)(C)C)cc4)cc3Cl)cc2)CC1` (racemic) stands 10 nM; under `CC(C)(C)C1CCC(c2ccc(C(Cc3ccc(C(=O)NCCS(=O)(=O)O)cc3)C(=O)Nc3ccc(-c4ccc(Cl)cc4Cl)cc3)cc2)CC1` (racemic) [drawing 110], 18 nM. On to `Cc1cc(Cl)ccc1-c1ccc(NC(=O)C(Cc2ccc(C(=O)NCCS(=O)(=O)O)cc2)c2ccc(C=CC(C)(C)C)cc2)cc1` (single isomer, unassigned) [drawing 125 R], for which the IC50 in experiment [1] (setting [4]) came to 14 nM. In the case of `Cc1cc(Cl)ccc1-c1ccc(NC(=O)C(Cc2ccc(C(=O)NCCS(=O)(=O)O)cc2)c2ccc(C=CC(C)(C)C)cc2)cc1` (single isomer, unassigned) [drawing 125 S], in experiment [1] (setting [5]), the IC50 was determined as 61 nM. On to `Cc1cc(Cl)ccc1-c1ccc(NC(=O)C(Cc2ccc(C(=O)NCCS(=O)(=O)O)cc2)c2ccc(C3=CCC(C(C)(C)C)CC3)cc2)cc1` (single isomer, unassigned) [drawing 127 R], for which, in experiment [1] (setting [4]), the IC50 turned out to be 6 nM. For the molecule `Cc1cc(Cl)ccc1-c1ccc(NC(=O)C(Cc2ccc(C(=O)NCCS(=O)(=O)O)cc2)c2ccc(C3=CCC(C(C)(C)C)CC3)cc2)cc1` (single isomer, unassigned) [drawing 127 S], the IC50 in experiment [1] (setting [5]) came to 20 nM. For `Cc1cc(Cl)ccc1-c1ccc(NC(=O)C(Cc2ccc(C(=O)NCCS(=O)(=O)O)cc2)c2ccc(C3=CCC(C(C)(C)C)CC3)cc2)cc1` (single isomer, unassigned) [drawing 129 R], the IC50 in experiment [1] (setting [4]) was found to be 7 nM. On to `Cc1cc(Cl)ccc1-c1ccc(NC(=O)C(Cc2ccc(C(=O)NCCS(=O)(=O)O)cc2)c2ccc(C3=CCC(C(C)(C)C)CC3)cc2)cc1` (single isomer, unassigned) [drawing 129 S], for which, in experiment [1] (setting [5]), the IC50 was found to be 19 nM. As for `Cc1cccc2oc(-c3ccc(NC(=O)C(Cc4ccc(C(=O)NCCS(=O)(=O)O)cc4)c4ccc(-c5ccc(C(C)(C)C)cc5)cc4)cc3)nc12` (single isomer, unassigned) [drawing 135 R], the IC50 in experiment [1] (setting [4]) was found to be 10 nM. On to `Cc1cccc2oc(-c3ccc(NC(=O)C(Cc4ccc(C(=O)NCCS(=O)(=O)O)cc4)c4ccc(-c5ccc(C(C)(C)C)cc5)cc4)cc3)nc12` (single isomer, unassigned) [drawing 135 S], for which the IC50 in experiment [1] (setting [5]) was 49 nM. As to `Cc1cc(Cl)ccc1-c1ccc(NC(=O)C(Cc2ccc(C(=O)NCCS(=O)(=O)O)cc2)c2ccc(-c3ccc(C(C)(C)C)cc3)cc2)cc1` (stereo not drawn) [drawing 131 R], in experiment [1] (setting [4]), the IC50 was found to be 11 nM. Same read-out and setting: in the case of `Cc1cc(Cl)ccc1-c1ccc(NC(=O)C(Cc2ccc(C(=O)NCCS(=O)(=O)O)cc2)c2ccc(C3=CCC(C)(C)CC3)cc2)cc1` (stereo not drawn) [drawing 133 R] it was 10 nM.
